Measured values reported in ChEMBL document CHEMBL1156824, “Physicochemical space for optimum oral bioavailability: contribution of human intestinal absorption and first-pass elimination” (J Med Chem, 2010).

Assays:
Homo sapiens [1] = assay: Oral bioavailability in human; details: in vivo
Homo sapiens [2] = species: Homo sapiens; assay: Fraction escaping hepatic elimination in human; details: in vivo
Homo sapiens [3] = species: Homo sapiens; assay: Hepatic clearance in human; details: in vivo
[4] = Volume of distribution at steady state in human; details: in vivo
clinical = details: human, in vivo

Row | Compound | F_fraction (Homo sapiens [1]) | Fh (Homo sapiens [2]) | CL (Homo sapiens [3]) | Vd [4] | CL renal (clinical)
1 | CNCCCN1c2ccccc2CCc2ccccc21 [DESIPRAMINE] | 0.4 | 0.53 |  |  | 
2 | CNS(=O)(=O)Cc1ccc2[nH]cc(CCN(C)C)c2c1 | 0.14 |  | 15.3 mL/min/kg |  | 
3 | CC(=O)Nc1ccc(O)cc1 [ACETAMINOPHEN] |  |  |  | 1 L/kg | 
4 | NCC1(CC(=O)O)CCCCC1 [GABAPENTIN] | 0.6 |  |  |  | 
5 | CC(C)NCC(O)c1ccc(NS(C)(=O)=O)cc1 (stereo unspecified) [SOTALOL] | 0.95 |  | 0.3 mL/min/kg |  | 
6 | Nc1ccn([C@H]2CC[C@@H](CO)O2)c(=O)n1 [ZALCITABINE] |  | 0.95 | 1.1 mL/min/kg |  | 4.5 mL/min/kg
7 | CN1CCN(c2c(F)cc3c(=O)c(C(=O)O)cn(CCF)c3c2F)CC1 [FLEROXACIN] |  |  | 0.9 mL/min/kg | 1.3 L/kg | 
8 | O=[N+]([O-])O[C@@H]1CO[C@H]2[C@@H]1OC[C@@H]2O [ISOSORBIDE MONONITRATE] |  |  | 1.9 mL/min/kg | 0.7 L/kg | 
9 | COc1cccc2c1C(=O)c1c(O)c3c(c(O)c1C2=O)C[C@@](O)(C(=O)CO)C[C@@H]3O[C@H]1C[C@H](N)[C@H](O)[C@H](C)O1 [DOXORUBICIN] | 0.05 |  | 13.2 mL/min/kg |  | 
10 | COC(=O)C1=C(C)NC(C)=C(C(=O)OC)C1c1ccccc1[N+](=O)[O-] [NIFEDIPINE] | 0.5 |  |  |  | 
11 | CC(C)(C)NC(=O)[C@@H]1C[C@@H]2CCCC[C@@H]2CN1C[C@@H](O)[C@H](Cc1ccccc1)NC(=O)[C@H](CC(N)=O)NC(=O)c1ccc2ccccc2n1 |  | 0.45 |  |  | 
12 | O=C(O)P(=O)(O)O [FOSCARNET] |  |  | 0.4 mL/min/kg | 0.5 L/kg | 
13 | CCCc1nc2c(C)cc(-c3nc4ccccc4n3C)cc2n1Cc1ccc(-c2ccccc2C(=O)O)cc1 | 0.43 |  | 8.3 mL/min/kg |  | 0.1 mL/min/kg
14 | Nc1ccc(S(=O)(=O)c2ccc(N)cc2)cc1 [DAPSONE] |  | 0.98 | 0.4 mL/min/kg |  | 
15 | CC(C)c1nc(N(C)S(C)(=O)=O)nc(-c2ccc(F)cc2)c1/C=C/[C@@H](O)C[C@@H](O)CC(=O)O [ROSUVASTATIN] | 0.2 |  | 7.7 mL/min/kg |  | 
16 | O=C(O)Cc1ccccc1Nc1c(Cl)cccc1Cl [DICLOFENAC] |  | 0.85 | 3.5 mL/min/kg |  | 0.035 mL/min/kg
17 | C[C@H](CS)C(=O)N1CCC[C@H]1C(=O)O [CAPTOPRIL] | 0.62 |  |  |  | 
18 | COc1ccc2[nH]c([S+]([O-])Cc3ncc(C)c(OC)c3C)nc2c1 (stereo unspecified) [OMEPRAZOLE] | 0.53 |  | 8.3 mL/min/kg |  | 0.1 mL/min/kg
19 | CC(=O)N[C@H]1[C@H]([C@H](O)[C@H](O)CO)OC(C(=O)O)=C[C@@H]1N=C(N)N [ZANAMIVIR] | 0.03 |  | 0.2 mL/min/kg |  | 
20 | CN1Cc2c(N)cccc2C(c2ccccc2)C1 (stereo unspecified) [NOMIFENSINE] |  |  | 9.5 mL/min/kg | 6 L/kg | 
21 | O=C1C(CC[S+]([O-])c2ccccc2)C(=O)N(c2ccccc2)N1c1ccccc1 (stereo unspecified) [SULFINPYRAZONE] | 0.93 |  |  |  | 

Row | Compound | F_fraction (Homo sapiens [1]) | Fh (Homo sapiens [2]) | CL (Homo sapiens [3]) | Vd [4] | CL renal (clinical)
22 | COC(=O)C1=C(C)NC(C)=C(C(=O)OCCN(C)Cc2ccccc2)C1c1cccc([N+](=O)[O-])c1 (stereo unspecified) [NICARDIPINE] |  |  |  | 1 L/kg | 
23 | CC(C)n1c(/C=C/C(O)CC(O)CC(=O)O)c(-c2ccc(F)cc2)c2ccccc21 (stereo unspecified) [FLUVASTATIN] |  | 0.3 |  |  | 
24 | CCc1nn(CCCN2CCN(c3cccc(Cl)c3)CC2)c(=O)n1CCOc1ccccc1 [NEFAZODONE] | 0.19 |  | 7.1 mL/min/kg |  | 0.4 mL/min/kg
25 | O=C(c1ccc(F)cc1)C1CCN(CCn2c(=O)[nH]c3ccccc3c2=O)CC1 [KETANSERIN] | 0.5 |  | 6.6 mL/min/kg |  | 0.1 mL/min/kg
26 | CC(C)(C)NCC(O)c1ccc(O)c(CO)c1 (stereo unspecified) [ALBUTEROL] |  | 0.88 |  |  | 
27 | C=CC1=C(C(=O)O)N2C(=O)[C@@H](NC(=O)/C(=N\OCC(=O)O)c3csc(N)n3)[C@H]2SC1 [CEFIXIME] | 0.47 |  | 0.6 mL/min/kg |  | 0.4 mL/min/kg
28 | CC[C@H]1OC(=O)[C@H](C)[C@@H](O[C@H]2C[C@@](C)(OC)[C@@H](O)[C@H](C)O2)[C@H](C)[C@@H](O[C@@H]2O[C@H](C)C[C@H](N(C)C)[C@H]2O)[C@](C)(O)C[C@@H](C)C(=O)[C@H](C)[C@@H](O)[C@]1(C)O [ERYTHROMYCIN] | 0.35 |  | 5.3 mL/min/kg |  | 0.3 mL/min/kg
29 | Cc1ccc(-c2nc3ccc(C)cn3c2CC(=O)N(C)C)cc1 [ZOLPIDEM] | 0.72 |  | 4.3 mL/min/kg |  | 0.043 mL/min/kg
30 | CCCC(=O)Nc1ccc(OCC(O)CNC(C)C)c(C(C)=O)c1 (stereo unspecified) [ACEBUTOLOL] | 0.5 |  |  |  | 
31 | Nc1nc2c(ncn2CCC(CO)CO)c(=O)[nH]1 [PENCICLOVIR] | 0.05 |  | 1.7 mL/min/kg |  | 
32 | CCN1CCCC1CNC(=O)c1cc(S(=O)(=O)CC)c(N)cc1OC (stereo unspecified) [AMISULPRIDE] |  |  | 3.4 mL/min/kg | 5.8 L/kg | 
33 | COc1ccc(C(=O)Nc2ccccc2CCC2CCCCN2C)cc1 (stereo unspecified) [ENCAINIDE] | 0.3 |  | 12.2 mL/min/kg |  | 0.8 mL/min/kg
34 | CCCCc1nc(Cl)c(CO)n1Cc1ccc(-c2ccccc2-c2nn[nH]n2)cc1 [LOSARTAN] | 0.36 |  | 7.3 mL/min/kg |  | 
35 | CN(C)c1ccc(O)c2c1C[C@H]1C[C@H]3[C@H](N(C)C)C(O)=C(C(N)=O)C(=O)[C@@]3(O)C(O)=C1C2=O [MINOCYCLINE] | 1 |  | 1.1 mL/min/kg |  | 0.1 mL/min/kg
36 | Nc1c(CC(=O)O)cccc1C(=O)c1ccc(Br)cc1 [BROMFENAC] | 0.67 |  | 1.3 mL/min/kg |  | 0.0022 mL/min/kg
37 | CC[C@H]1OC(=O)[C@H](C)[C@@H](O[C@H]2C[C@@](C)(OC)[C@@H](O)[C@H](C)O2)[C@H](C)[C@@H](O[C@@H]2O[C@H](C)C[C@H](N(C)C)[C@H]2O)[C@](C)(O)C[C@@H](C)CN(C)[C@H](C)[C@@H](O)[C@]1(C)O [AZITHROMYCIN] | 0.34 |  | 9.6 mL/min/kg |  | 0.5 mL/min/kg
38 | CC(C)Cc1ccc(C(C)C(=O)O)cc1 (stereo unspecified) [IBUPROFEN] | 0.95 |  |  |  | 
39 | CCOc1ccccc1OC(c1ccccc1)C1CNCCO1 (stereo unspecified) [REBOXETINE] | 0.95 |  | 0.8 mL/min/kg |  | 0.041 mL/min/kg
40 | N[C@@H](C(=O)N[C@@H]1C(=O)N2C(C(=O)O)=C(CSc3c[nH]nn3)CS[C@H]12)c1ccc(O)cc1 [CEFATRIZINE] | 0.75 |  | 0.7 mL/min/kg |  | 
41 | C[C@@H]1CN(c2c(F)c(N)c3c(=O)c(C(=O)O)cn(C4CC4)c3c2F)C[C@H](C)N1 [SPARFLOXACIN] | 0.92 |  | 2.3 mL/min/kg |  | 
42 | C[C@H]1COc2c(N3CCN(C)CC3)c(F)cc3c(=O)c(C(=O)O)cn1c23.C[C@H]1COc2c(N3CCN(C)CC3)c(F)cc3c(=O)c(C(=O)O)cn1c23.O [LEVOFLOXACIN] | 0.99 |  | 0.5 mL/min/kg |  | 

Row | Compound | F_fraction (Homo sapiens [1]) | Fh (Homo sapiens [2]) | CL (Homo sapiens [3]) | Vd [4] | CL renal (clinical)
43 | Cc1c(OCC(F)(F)F)ccnc1C[S+]([O-])c1nc2ccccc2[nH]1 (stereo unspecified) [LANSOPRAZOLE] | 0.85 |  | 4.4 mL/min/kg |  | 0.044 mL/min/kg
44 | Cc1nc2n(c(=O)c1CCN1CCC(c3noc4cc(F)ccc34)CC1)CCCC2 [RISPERIDONE] | 0.66 |  |  |  | 0.2 mL/min/kg
45 | CNC(=C[N+](=O)[O-])NCCSCc1csc(CN(C)C)n1 [NIZATIDINE] |  |  | 2.5 mL/min/kg | 1 L/kg | 
46 | CC[C@H](C)C(=O)O[C@H]1C[C@@H](C)C=C2C=C[C@H](C)[C@H](CC[C@@H]3C[C@@H](O)CC(=O)O3)[C@H]21 [LOVASTATIN] |  | 0.72 | 6.5 mL/min/kg |  | 0.7 mL/min/kg
47 | CCOC(=O)C1=C(C)NC(C)=C(C(=O)OC)C1c1cccc(Cl)c1Cl (stereo unspecified) [FELODIPINE] | 0.16 |  |  |  | 
48 | O=C(NCCNCC(O)COc1ccc(O)cc1)N1CCOCC1 (stereo unspecified) [XAMOTEROL] | 0.05 |  | 1.1 mL/min/kg |  | 
49 | CCCCNC(=O)NS(=O)(=O)c1ccc(C)cc1 [TOLBUTAMIDE] |  | 0.99 |  |  | 0.0002 mL/min/kg
50 | O=C(c1ccccc1)c1ccc2n1CCC2C(=O)O (stereo unspecified) [KETOROLAC] | 1 |  | 0.2 mL/min/kg |  | 
51 | CO[C@H]1/C=C/O[C@@]2(C)Oc3c(C)c(O)c4c(c3C2=O)C2=NC3(CCN(CC(C)C)CC3)NC2=C(NC(=O)/C(C)=C\C=C\[C@H](C)[C@H](O)[C@@H](C)[C@@H](O)[C@@H](C)[C@H](OC(C)=O)[C@@H]1C)C4=O [RIFABUTIN] | 0.2 | 0.91 | 2 mL/min/kg |  | 
52 | COc1ccc(C(CN(C)C)C2(O)CCCCC2)cc1 (stereo unspecified) [VENLAFAXINE] | 0.42 |  | 13.4 mL/min/kg |  | 0.6 mL/min/kg
53 | CCCN(CCC)S(=O)(=O)c1ccc(C(=O)O)cc1 [PROBENECID] | 1 |  | 0.2 mL/min/kg |  | 
54 | CN(C)C(=N)N=C(N)N [METFORMIN] |  | 1 |  |  | 
55 | CCCc1nc(C)c2c(=O)[nH]c(-c3cc(S(=O)(=O)N4CCN(CC)CC4)ccc3OCC)nn12 |  |  |  | 3 L/kg | 
56 | CN(C)Cc1nnc2n1-c1ccc(Cl)cc1C(c1ccccc1)=NC2 [ADINAZOLAM] | 0.39 |  | 3.6 mL/min/kg |  | 
57 | Nc1nc(=O)[nH]cc1F [FLUCYTOSINE] | 0.84 |  | 0.02 mL/min/kg |  | 
58 | C[C@@H]1C(=O)O[C@H]2[C@H](O)[C@@]34[C@H]5C[C@@H](C(C)(C)C)[C@]36[C@@H](OC(=O)[C@@H]6O)O[C@@]4(C(=O)O5)[C@@]12O [GINKOLIDE B] |  |  | 1.3 mL/min/kg |  | 1 mL/min/kg
59 | COc1ccc2c(c1)N(C[C@H](C)CN(C)C)c1ccccc1S2 [LEVOMEPROMAZINE] |  |  | 5.9 mL/min/kg |  | 4 mL/min/kg
60 | CCOc1cc(CC(=O)N[C@@H](CC(C)C)c2ccccc2N2CCCCC2)ccc1C(=O)O [REPAGLINIDE] |  |  | 7.7 mL/min/kg |  | 0.1 mL/min/kg
61 | CCC1(c2ccccc2)C(=O)NC(=O)NC1=O [PHENOBARBITAL] |  |  | 0.0479 mL/min/kg |  | 0.0151 mL/min/kg
62 | CCOc1ccccc1OCCN[C@H](C)Cc1ccc(OC)c(S(N)(=O)=O)c1 [TAMSULOSIN] | 1 |  | 0.5 mL/min/kg |  | 0.1 mL/min/kg
63 | Cc1cc(NC(=O)C2=C(O)c3ccccc3S(=O)(=O)N2C)no1 [ISOXICAM] |  |  | 0.1 mL/min/kg |  | 0.0014 mL/min/kg
